The values below come from patent publication US6518423B1, “Benzopiperidine derivatives” (Eisai Co., Ltd., priority 1996, dated 2003).

Each structure is given as a SMILES string. Some results are limits rather than exact numbers.

Broadly, the melting point is the temperature of the solid-liquid transition.

For `O=S(=O)(NCCc1cn(Cc2ccc3c(c2)Nc2nccnc2S3)cn1)c1ccccc1`, the melting point lay within 127 to 130 °C.

For the compound `O=C(NCCc1cn(Cc2ccc3c(c2)Nc2nccnc2S3)cn1)c1ccccc1`, the melting point fell in the range of 231 to 233 °C. The result for `O=Cc1nccn1Cc1ccc2c(c1)Nc1nccnc1S2` reads 218 to 219 °C. `Cc1c(C(N)=O)ncn1Cc1ccc2c(c1)Nc1nccnc1S2` showed a melting point of over 298 °C.

The compound `NS(=O)(=O)NCCc1cn(Cc2ccc3c(c2)Nc2nccnc2S3)cn1` gave a melting point of 187 to 189 °C.

Take `Cc1c(CO)ncn1Cc1ccc2c(c1)Nc1nccnc1S2`: the melting point is > 270 °C (dec.).

On to `c1cn(Cc2ccc3c(c2)Nc2nccnc2O3)cn1`, for which the melting point is 252 to 255 °C. The result for `O=c1ccn(Cc2ccc3c(c2)Nc2nccnc2S3)c(=O)[nH]1` reads 269 to 271 °C.

In turn, `c1cnc2c(c1)ccn2Cc1ccc2c(c1)Nc1nccnc1S2` had a melting point of 202 to 204 °C. To `c1cc2ccnc-2n(Cc2ccc3c(c2)Nc2nccnc2S3)c1` belongs 210 to 214 °C; to `c1ccc2c(c1)nnn2Cc1ccc2c(c1)Nc1nccnc1S2`, 251 to 258 °C. The result for `c1cnc2c(n1)Nc1cc(Cn3cncn3)ccc1S2` reads 223 to 226 °C.

With `c1csc(Cc2ccc3c(c2)Nc2nccnc2S3)n1`, the melting point is 160 to 161 °C. The result for `C(=C\c1ccc2c(c1)Nc1nccnc1S2)/c1ccncc1` reads over 275 °C; that for `OC(c1ccc(Br)nc1)c1ccc2c(c1)Nc1nccnc1S2` (centres unmarked), 221 to 223 °C. The result for `FC(c1cccnc1)c1ccc2c(c1)Nc1nccnc1S2` (centres unmarked) reads 157 to 159 °C; that for `O=C(O)CC1CC2CCC(C1)N2Cc1ccc2c(c1)Nc1nccnc1S2` (centres unmarked), 155 to 158 °C; that for `OCCC1C2CCCC1CN(Cc1ccc3c(c1)Nc1nccnc1S3)C2` (centres unmarked), 123 to 127 °C. `c1ccc(NCc2ccc3c(c2)Nc2nccnc2S3)cc1`: the melting point lay in the range of 183 to 186 °C. The result for `CN(Cc1ccc2c(c1)Nc1nccnc1S2)c1ccccc1` reads 172 to 174 °C.

The compound `O=C(O)C1CCC(CNCc2ccc3c(c2)Nc2nccnc2S3)CC1` (centres unmarked) yielded a melting point of 217 to 220 °C. To `CN(CCCC(C)(C)C(=O)O)Cc1ccc2c(c1)Nc1nccnc1S2` belongs 200 to 202 °C. For `CNS(=O)(=O)CCN(C)Cc1ccc2c(c1)Nc1nccnc1S2`, the melting point fell in the range of 143 to 146 °C. The result for `Cl.O=C(O)Cc1ccc(NCc2ccc3c(c2)Nc2nccnc2S3)cc1` reads 252 to 256 °C; that for `O=C(NCc1ccc2c(c1)Nc1nccnc1S2)c1ccncc1`, 249 to 253 °C (dec.); that for `CC(C)(CO)C1C2CCCC1CN(Cc1ccc3c(c1)Nc1nccnc1S3)C2` (centres unmarked), 181 to 183 °C. To `O=c1[nH]cnc2c1ncn2Cc1ccc2c(c1)Nc1nccnc1S2` belongs over 275 °C; to `CC1CC(C)CN(c2ncnc3c2ncn3Cc2ccc3c(c2)Nc2nccnc2S3)C1` (centres unmarked), 237 to 238 °C. Take `c1ccc(C2CCN(c3ncnc4c3ncn4Cc3ccc4c(c3)Nc3nccnc3S4)CC2)cc1`: the melting point lay in the range of 239 to 241 °C. The result for `c1cnc2c(n1)Nc1cc(Cn3cnc4ncnc(N5CCOCC5)c43)ccc1S2` reads 269 to 273 °C. In the case of `O=C(O)CCCCCCCCCCSc1ncnc2c1ncn2Cc1ccc2c(c1)Nc1nccnc1S2`, the melting point lay in the range of 154 to 156 °C. To `CN(C)C(=O)/N=C(\N)Cc1ccc2c(c1)Nc1nccnc1S2` belongs 158 to 161 °C; to `Cl.c1cnc2c(n1)Nc1cc(CC3=NCCCN3)ccc1S2`, over 280 °C; to `Cl.N=C(Cc1ccc2c(c1)Nc1nccnc1S2)NCCO`, 174 to 175 °C. The result for `N=C(Cc1ccc2c(c1)Nc1nccnc1S2)N1CCC(O)CC1` reads 265 to 267 °C; that for `CC(CCC1CCN(C(=N)Cc2ccc3c(c2)Nc2nccnc2S3)CC1)C(=O)O.Cl` (centres unmarked), 166 to 171 °C.

`N#CN=C(Cc1ccc2c(c1)Nc1nccnc1S2)NO` registered a melting point of 253 to 256 °C.

Turning to `CONC(Cc1ccc2c(c1)Nc1nccnc1S2)=NC#N`, the melting point is 172 to 174 °C. The result for `N#CN=C(Cc1ccc2c(c1)Nc1nccnc1S2)NCCCC(=O)O` reads 217 to 218 °C (dec.); that for `CS(=O)(=O)/N=C/NCc1ccc2c(c1)Nc1nccnc1S2`, 175 to 176 °C. The result for `CN(C=NC#N)Cc1ccc2c(c1)Nc1nccnc1S2` reads 197 to 198 °C; that for `OCc1ccc2c(c1)Nc1nccnc1S2`, 187 to 189 °C; that for `ClCc1ccc2c(c1)Nc1nccnc1S2`, 161 to 162 °C. The result for `O=S(=O)(NC1CCN(Cc2ccc3c(c2)Nc2nccnc2S3)CC1)c1ccccc1` reads 157 to 158 °C; that for `OCCC1CCN(Cc2ccc3c(c2)Nc2nccnc2S3)CC1`, 148 to 152 °C.

`c1cc2c(cn1)Sc1ccc(CN3CCCCC3)cc1N2` displayed a melting point of 163 to 166 °C.

With `N#CC1CCN(Cc2ccc3c(c2)Nc2nccnc2S3)CC1`, the melting point fell in the range of 198 to 199 °C. The result for `CN(C)S(=O)(=O)NC1CCN(Cc2ccc3c(c2)Sc2nccnc2N3)CC1` reads 172 to 173 °C. The result for `O=S(=O)(NCCO)NC1CCN(Cc2ccc3c(c2)Nc2nccnc2S3)CC1` reads 164 to 166 °C; that for `O=C1CC2(CCN(Cc3ccc4c(c3)Nc3nccnc3S4)CC2)CO1`, 180 to 182 °C. To `O=C1CC2(CCN(Cc3ccc4c(c3)Nc3nccnc3S4)CC2)CN1` belongs 211 to 212 °C.

Consider `NS(=O)(=O)N1CCN(Cc2ccc3c(c2)Nc2nccnc2S3)CC1`, for which the melting point was 215 to 217 °C (dec.). The result for `N=C(NC1CCN(Cc2ccc3c(c2)Nc2nccnc2S3)CC1)C(=O)O` reads 186 to 190 °C; that for `CS(=O)(=O)NCC1CCN(Cc2ccc3c(c2)Nc2nccnc2S3)CC1`, 218 to 221 °C; that for `CS(=O)(=O)NCC1CN(Cc2ccc3c(c2)Nc2nccnc2S3)C1`, 84 to 88 °C.

In turn, `c1cnc2c(n1)Nc1cc(CN3CCc4ccoc4C3)ccc1S2` returned a melting point of 168 to 172 °C. To `CC(=NC#N)N1CCN(Cc2ccc3c(c2)Nc2nccnc2S3)CC1` belongs 234 °C (dec.); to `c1cnc2c(n1)Nc1cc(CN3CCCCCCC3)ccc1S2`, 133 to 135 °C; to `c1ccc2c(c1)CCN(Cc1ccc3c(c1)Nc1nccnc1S3)C2`, 188 to 191 °C. On to `C/C(=C\C(=O)O)C1CCN(Cc2ccc3c(c2)Nc2nccnc2S3)CC1`, for which the melting point lay within 207 to 209 °C. The result for `CC(C(=O)O)C1CCN(Cc2ccc3c(c2)Nc2nccnc2S3)CC1` (centres unmarked) reads 240 to 243 °C; that for `CC(CCC1CCN(CC(O)c2ccc3c(c2)Nc2nccnc2S3)CC1)C(=O)O` (centres unmarked), 239 to 242 °C; that for `O=C(O)C(=O)NC1CCN(Cc2ccc3c(c2)Nc2nccnc2S3)CC1`, 222 to 226 °C. The result for `C/C(=C\C(=O)O)CC1CCN(Cc2ccc3c(c2)Nc2nccnc2S3)CC1` reads 126 to 130 °C. With `C/C(=C\CC1CCN(Cc2ccc3c(c2)Nc2nccnc2S3)CC1)C(=O)O`, the melting point was in the range of 91 to 93 °C.

Regarding `O=C(O)CNC(=O)NC1CCN(Cc2ccc3c(c2)Nc2nccnc2S3)CC1`, the melting point lay within 207 to 210 °C. The result for `O=C(O)Cc1cc2c(s1)CN(Cc1ccc3c(c1)Nc1nccnc1S3)CC2` reads 98 to 105 °C. To `CC(CCC1CCN(C(=O)Cc2ccc3c(c2)Nc2nccnc2S3)CC1)C(=O)O` (centres unmarked) belongs 84 to 89 °C; to `c1ccc2c(c1)Nc1nccnc1N2`, 215 to 217 °C; to `OCC(O)CN1c2ccccc2Nc2nccnc21` (centres unmarked), 191 to 194 °C. To `COc1ccc2c(c1)Nc1nccnc1N2C` belongs 198 to 201 °C; to `COCOc1ccc2c(c1)Nc1nccnc1N2C`, 197 to 198 °C; to `Cl.Oc1ccc2c(c1)Nc1nccnc1N2`, over 275 °C. On to `COCc1ccc2c(c1)Nc1nccnc1N2C`, for which the melting point is 169 to 172 °C.

`CC(CCC1C2CCCC1CN(Cc1ccc3c(c1)Nc1nccnc1S3)C2)C(=O)O` (centres unmarked) gave a melting point of 104 to 108 °C. The result for `OCCN1c2ccccc2Nc2nccnc21` reads 197 to 204 °C; that for `OCCCCN1c2ccccc2Nc2nccnc21`, 138 to 139 °C; that for `CN1c2ccc(CN)cc2Nc2nccnc21`, 117 to 122 °C. To `NC(=O)NCCN1c2ccccc2Nc2nccnc21` belongs 231 to 233 °C; to `CN(C)CC#Cc1ccc2c(c1)Nc1nccnc1N2C`, 188 to 189 °C. The result for `c1csc(NCc2ccc3c(c2)Nc2nccnc2S3)n1` reads 230 to 235 °C. Take `c1cc(CNCc2ccc3c(c2)Nc2nccnc2S3)ccn1`: the melting point is 174 to 176 °C. To `FC(F)(F)c1cnc(NCc2ccc3c(c2)Nc2nccnc2S3)c(Cl)c1` belongs 158 to 161 °C; to `COC(=O)c1ccc(NCc2ccc3c(c2)Nc2nccnc2S3)nc1`, 140 to 148 °C; to `OCc1cc(NCc2ccc3c(c2)Nc2nccnc2S3)ccn1`, 156 to 160 °C. The result for `Nc1ncccc1NCc1ccc2c(c1)Nc1nccnc1S2` reads 225 to 228 °C. To `COc1ccc(NCc2ccc3c(c2)Nc2nccnc2S3)cn1` belongs 168 to 172 °C. `c1ccc(Oc2ccc(NCc3ccc4c(c3)Nc3nccnc3S4)cn2)cc1`: the melting point is 162 to 165 °C.

`c1ccc(Cc2ccc(NCc3ccc4c(c3)Nc3nccnc3S4)cn2)cc1`: the melting point was 162 to 164 °C.

`CC(=O)N(Cc1ccc2c(c1)Nc1nccnc1S2)c1cccnc1` showed a melting point of 212 to 214 °C.

`O=C(Nc1ccccc1)N(Cc1ccc2c(c1)Nc1nccnc1S2)c1cccnc1` registered a melting point of 208 to 210 °C. To `CC12CCCC(C)(CN(Cc3ccc4c(c3)Nc3nccnc3S4)C1)C2CC(=O)O` (centres unmarked) belongs 226 to 229 °C.
